This passage reports IC50 results from patent US9394297B2, “Amides as pim inhibitors” (AMGEN INC., priority 2012, dated 2016).

For experiment [1], the target named is Pim-2 (Homo sapiens (Human), UniProt Q9P1W9). Description: Pim enzyme assay (HTRF, 96-well), Pim-2. The experiment is classed as biochemical. To be noted: full length recombinant Pim-2, biotinylated-BAD (S112) peptide, 10-point curve, 45 min RT, read-out: Pim-2 IC50 IP. The text has this:
(§1) These cDNAs were used as templates in PCR reactions to produce full-length DNA clones of the PIMs. […] PCR products were digested with BclI and EcoRI for Pim-1 and BamHI and EcoRI for Pim-2 and ligated into a modified baculovirus transfer vector (pFastBac1) cleaved with BamHI and EcoRI. For bacterial expression, the same cleaved PCR products encoding Pim-1 or Pim-2 were ligated into a modified E. coli expression vector pET28(a) cleaved with BamHI and EcoRI. Amino-terminal hexahistidine tags followed by a thrombin cleavage site were previously added to the vectors using standard methods of molecular biology.
(§2) Recombinant baculoviruses expressing Pim-1 or Pim-2 were made using standard methods (Fastbac manual, Invitrogen, Carlsbad, Calif.). […] Cells were harvested by centrifugation and frozen at −80 C. For E. coli expression, cells carrying pET28-His6-Th-Pim-1 or pET28-His6-Th-Pim-2 were picked from a single colony and grown o/n in LB media. The o/n culture was used to inoculate a 2 liter flask with 500 mL media. This was grown o/n and used to inoculate 15-20 liters of Terrific Broth in a New Brunswick Scientific fermentor. The E. coli were grown at 37° C. to and OD600 >1.6. The temperature was dropped to 18° C. and o/n expression was induced with 0.5 mM IPTG. Cells were harvested by centrifugation and frozen at −80° C.
(§3) The slurry was centrifuged at 1,000×g for 5 min, the supernatant decanted, and the resin suspended in 40 mL of lysis wash buffer (lysis buffer at 0.75 M NaCl). This step was repeated 3× and the resin was transferred to a 2.5 cm glass column. Ten column volumes of wash buffer (0.05 M HEPES, pH 8.0, 0.1 M NaCl, 0.01 M 2-mercaptoethanol, 10%(w/v) glycerol) were applied to the resin followed by 10 column volumes of elution buffer (0.05 M HEPES, pH 8.0, 0.25 M NaCl, 0.01 M 2-mercaptoethanol, 10%(w/v) glycerol, 0.1 M imidazole). Fractions were analyzed by SDS-PAGE and those containing the protein of interest were pooled and concentrated. The concentrated protein was applied to an Amersham Superdex 75 (XK 26/60) column equilibrated in 0.025 M Tris-HCl, pH 7.5, 0.1 M NaCl, 0.01 M 2-mercaptoethanol, 10% (w/v) glycerol. […] Fractions containing the monomeric protein of interest were pooled, concentrated to ˜2 mg/mL, and stored at −80° C.
(§4) The phosphorylation of biotinylated-BAD (S112) peptide by full length recombinant Pim-1, Pim-2, or Pim-3 protein was detected with streptavidin:Allophycocyanin (APC) conjugate and a europium (Eu) labeled antibody directed against phosphorylated-BAD (S112). […] The fluorescence is directly proportional to the amount of phosphorylated BAD peptide present in the reaction. […] A reference compound was included on each assay plate in order to validate that plate; on one plate of every assay run, two additional reference compounds were included. The final buffer conditions were as follows: 60 mM Hepes, pH 7.0, 0.05% BSA, 2 mM DTT. Incubations were carried out at RT (22° C.) for 2 h for Pim-1, 1 hour and 30 min for Pim-3, and 45 min for Pim-2. The reaction was stopped by the addition of 3 mM EDTA, and fluorescence was measured by an HTRF® Rubystar microplate reader. For each plate, percent of control (POC) values were calculated for each well. Values for the IC50 IP were estimated using a standard 4-parameter logistic model.

The target in experiment [2] is Pim-1 (Homo sapiens (Human), UniProt P11309). Description: Pim enzyme assay (HTRF, 96-well), Pim-1. It counts as biochemical. To be noted: full length recombinant Pim-1, biotinylated-BAD (S112) peptide, 10-point curve, 2 h RT, read-out: Pim-1 IC50 IP.
Pim-1, sequence (P11309 whole entry): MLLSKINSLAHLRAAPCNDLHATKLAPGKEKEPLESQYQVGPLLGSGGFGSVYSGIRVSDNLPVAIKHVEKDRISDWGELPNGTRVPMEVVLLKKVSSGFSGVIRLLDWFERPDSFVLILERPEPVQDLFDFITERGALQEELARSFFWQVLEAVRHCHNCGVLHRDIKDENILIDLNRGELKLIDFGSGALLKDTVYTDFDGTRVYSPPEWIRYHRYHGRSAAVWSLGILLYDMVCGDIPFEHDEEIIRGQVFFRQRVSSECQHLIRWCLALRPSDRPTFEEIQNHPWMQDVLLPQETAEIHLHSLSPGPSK
From the text: as §1, §2, §3, §4
On the technique in general: In TR-FRET formats the signal depends on donor and acceptor labels being close together.

The subject of experiment [3] is KMS-12-BM myeloma cell line. Description: Pim KMS-12 cell assay (phospho-BAD S112 / total BAD, MSD). Conditions: Homo sapiens, KMS-12-BM, read-out: KMS-12-BM IC50 IP, KMS-12-BM cells, phospho-BAD (S112) vs total BAD, 1 hour 50 min with compound.

Broadly, the IC50 is the point on the concentration scale where inhibition reaches its midpoint.

Pim-2, sequence (Q9P1W9 whole entry): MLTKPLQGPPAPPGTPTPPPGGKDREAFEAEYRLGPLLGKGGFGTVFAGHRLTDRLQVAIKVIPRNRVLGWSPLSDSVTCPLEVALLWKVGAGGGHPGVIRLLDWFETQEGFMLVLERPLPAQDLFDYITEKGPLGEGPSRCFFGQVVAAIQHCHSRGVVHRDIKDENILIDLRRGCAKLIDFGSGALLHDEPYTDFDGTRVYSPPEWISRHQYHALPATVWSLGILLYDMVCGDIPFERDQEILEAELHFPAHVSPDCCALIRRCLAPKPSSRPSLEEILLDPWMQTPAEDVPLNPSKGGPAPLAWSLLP

In the case of `O=C1NCCc2[nH]c(-c3cccc4ccc(O[C@@H]5CCCNC5)nc34)cc21` [Example 89, (R)-2-(2-(piperidin-3-yloxy)quinolin-8-yl)-6,7-dihydro-1H-pyrrolo[3,2-c]pyridin-4(5H)-one], the values for the IC50 in experiment [1] and in experiment [2] were 340 nM and 46.6 nM, respectively.

On to `COc1ccc(Cl)cc1-c1ccc2cccc(-c3cc4c([nH]3)CCNC4=O)c2n1` [Example 88, 2-(2-(5-chloro-2-methoxyphenyl)quinolin-8-yl)-6,7-dihydro-1H-pyrrolo[3,2-c]pyridin-4(5H)-one], for which the IC50 in experiment [1] was 166 nM; in experiment [2], 42.1 nM.

With `O=C1NCCc2[nH]c(-c3cccc4ccc(Oc5cccc(Cl)c5)nc34)cc21` [Example 41, 2-(2-(3-chlorophenoxy)-8-quinolinyl)-1,5,6,7-tetrahydro-4H-pyrrolo[3,2-c]pyridin-4-one], the IC50 in experiment [1] amounted to 68 nM; in experiment [2], 13.6 nM.

Take `O=C1NCCc2[nH]c(-c3cccc4cnc(Oc5ccccc5)nc34)cc21` [Example 236, 2-(2-phenoxyquinazolin-8-yl)-6,7-dihydro-1H-pyrrolo[3,2-c]pyridin-4(5H)-one 2,2,2-trifluoroacetate]: the IC50 in experiment [1] was 40.2 nM; in experiment [2] it was 34.2 nM.

For the molecule `CC1Cc2[nH]c(-c3cccc4ccc(Nc5ccccc5)nc34)cc2C(=O)N1` (racemic) [Example 237, rac-6-methyl-2-(2-(phenylamino)quinolin-8-yl)-6,7-dihydro-1H-pyrrolo[3,2-c]pyridin-4(5H)-one], the values for the IC50 in experiment [3] and in experiment [1] were 6580 nM and 34.2 nM, respectively.

Consider `O=C1NCCc2[nH]c(-c3cccc4ccc(Sc5ccccc5)nc34)cc21` [Example 5, 2-(2-(phenylthio)quinolin-8-yl)-6,7-dihydro-1H-pyrrolo[3,2-c]pyridin-4(5H)-one], for which the IC50 was 5700 nM in experiment [3] and 11.5 nM in experiment [1].

Take `O=c1[nH]ccc2[nH]c(-c3cccc4ccc(Nc5ccccc5)nc34)nc12` [Example 189, 2-(2-(phenylamino)quinolin-8-yl)-1H-imidazo[4,5-c]pyridin-4(5H)-one 2,2,2-trifluoroacetate]: the IC50 in experiment [1] is 71.8 nM; in experiment [2], 28.6 nM.

As for `O=C1NCCc2[nH]c(-c3cccc4ccc(OC5CCNCC5)nc34)cc21` [Example 81, 2-(2-(piperidin-4-yloxy)quinolin-8-yl)-6,7-dihydro-1H-pyrrolo[3,2-c]pyridin-4(5H)-one], the results for the IC50 in experiment [1] and in experiment [2] were 95.6 nM and 6 nM, respectively.

As for `O=C1NCCc2[nH]c(-c3cccc4ccc(C5(c6ccccc6)CC5)nc34)cc21` [Example 114, 2-(2-(1-phenylcyclopropyl)quinolin-8-yl)-6,7-dihydro-1H-pyrrolo[3,2-c]pyridin-4(5H)-one], the results for the IC50 in experiment [3] and in experiment [1] were 4180 nM and 8.9 nM, respectively.

Consider `O=C1NCCc2[nH]c(-c3cccc4ccc(Nc5cccc(Cl)c5)nc34)cc21` [Example 40, 2-(2-((3-chlorophenyl)amino)-8-quinolinyl)-1,5,6,7-tetrahydro-4H-pyrrolo[3,2-c]pyridin-4-one], for which the results for the IC50 in experiment [1] and in experiment [2] were 14.3 nM and 1.8 nM, respectively.

`Nc1ccc(-c2ccc3cccc(-c4cc5c([nH]4)CCNC5=O)c3n2)c(F)c1` [Example 91, 2-(2-(4-amino-2-fluorophenyl)quinolin-8-yl)-6,7-dihydro-1H-pyrrolo[3,2-c]pyridin-4(5H)-one]: the IC50 in experiment [1] amounted to 46.1 nM; in experiment [2], 10.6 nM.

With `Cc1cccc(C)c1Oc1ccc2cccc(-c3cc4c([nH]3)CCNC4=O)c2n1` [Example 101], the half-maximal inhibitory concentration (IC50) in experiment [1] came to 80.9 nM; in experiment [2], 19.8 nM.

As to `O=C1NCCc2[nH]c(-c3cccc4ccc(N[C@@H]5CCCNC5)nc34)cc21` [Example 124, (R)-2-(2-(piperidin-3-ylamino)quinolin-8-yl)-6,7-dihydro-1H-pyrrolo[3,2-c]pyridin-4(5H)-one], the IC50 stood at 141 nM in experiment [1] and 6.4 nM in experiment [2].

In the case of `O=C1NCCc2[nH]c(-c3cccc4ccc(Nc5cncnc5)nc34)cc21` [Example 13, 2-(2-(pyrimidin-5-ylamino)quinolin-8-yl)-6,7-dihydro-1H-pyrrolo[3,2-c]pyridin-4(5H)-one], the IC50 was 2.8 nM in experiment [1] and 0.8 nM in experiment [2].

For `Cc1nc2cccc(-c3cc4c([nH]3)CCNC4=O)c2nc1F` [Example 126, 2-(3-fluoro-2-methylquinoxalin-5-yl)-6,7-dihydro-1H-pyrrolo[3,2-c]pyridin-4(5H)-one], in experiment [1], the IC50 is greater than 1000 nM.

As to `Cc1ccc(C(N)=O)cc1-c1ccc2cccc(-c3cc4c([nH]3)CCNC4=O)c2n1` [Example 232, 4-methyl-3-(8-(4-oxo-4,5,6,7-tetrahydro-1H-pyrrolo[3,2-c]pyridin-2-yl)-2-quinolinyl)benzamide], the IC50 in experiment [1] stood at 52.9 nM; in experiment [2] it was 23.3 nM.

With `O=c1[nH]cnc2[nH]c(-c3cccc4ccc(Oc5ccccc5)nc34)cc12` [Example 17, 6-(2-phenoxyquinolin-8-yl)-3H-pyrrolo[2,3-d]pyrimidin-4(7H)-one], the figures for the IC50 in experiment [1] and in experiment [2] were 80.2 nM and 34 nM, respectively.

In the case of `O=c1[nH]ccc2[nH]c(-c3cccc4ccc(Oc5ccccc5)nc34)cc12` [Example 225, 2-(2-phenoxyquinolin-8-yl)-1H-pyrrolo[3,2-c]pyridin-4(5H)-one], the IC50 in experiment [1] came out at 43.7 nM; in experiment [2], 15.9 nM.

Consider `CC1Cc2[nH]c(-c3cccc4ccc(Nc5ccccc5)nc34)cc2C(=O)N1` (single isomer, unassigned) [Example 33, 6-methyl-2-(2-(phenylamino)quinolin-8-yl)-6,7-dihydro-1H-pyrrolo[3,2-c]pyridin-4(5H)-one], for which the IC50 in experiment [3] amounted to 4100 nM; in experiment [1], 35.3 nM.

For the molecule `CC1Cc2[nH]c(-c3cccc4ccc(Nc5ccccc5)nc34)cc2C(=O)N1` (single isomer, unassigned) [Example 34, 6-methyl-2-(2-(phenylamino)quinolin-8-yl)-6,7-dihydro-1H-pyrrolo[3,2-c]pyridin-4(5H)-one], in experiment [1], the IC50 was 73.3 nM.

In the case of `CC(Oc1ccc2cccc(-c3cc4c([nH]3)CCNC4=O)c2n1)C(F)(F)F` (racemic) [Example 79, rac-2-(2-((1,1,1-trifluoropropan-2-yl)oxy)quinolin-8-yl)-6,7-dihydro-1H-pyrrolo[3,2-c]pyridin-4(5H)-one], the IC50 in experiment [1] was found to be 204 nM.

Take `CC1CNC(=O)c2cc(-c3cccc4ccc(Oc5ccccc5)nc34)[nH]c21` (racemic) [Example 28, rac-7-methyl-2-(2-phenoxyquinolin-8-yl)-6,7-dihydro-1H-pyrrolo[3,2-c]pyridin-4(5H)-one]: in experiment [1], the IC50 came to 61 nM.

`CCCNc1nc2c(-c3cc4c([nH]3)CCNC4=O)cccc2nc1C` [Example 191, 2-(2-methyl-3-(propylamino)-5-quinoxalinyl)-1,5,6,7-tetrahydro-4H-pyrrolo[3,2-c]pyridin-4-one]: the IC50 in experiment [3] amounted to 376 nM; in experiment [1], 6.6 nM.

In the case of `O=C1NCCc2[nH]c(-c3cccc4ccc(Oc5cccc(O)c5)nc34)cc21` [Example 109, 2-(2-(3-hydroxyphenoxy)quinolin-8-yl)-6,7-dihydro-1H-pyrrolo[3,2-c]pyridin-4(5H)-one], the IC50 is 8810 nM in experiment [3] and 15.8 nM in experiment [1].
